Three compounds from ChEMBL document CHEMBL5696442, “Discovery of type II inhibitors of TGFβ-activated kinase 1 (TAK1) and mitogen-activated protein kinase kinase kinase kinase 2 (MAP4K2)” (J Med Chem, 2015) can be followed below.

Assay [1] addresses Protein kinase C epsilon type (Homo sapiens) (UniProt Q02156). The assay can be described thus: Inhibition of PRKCE (unknown origin) at 1 uM by Ambit Kinomescan binding assay relative to control; values are per cent of control.
The target in assay [2] is Putative phosphatidylinositol 4-kinase alpha-like protein P2 (Homo sapiens) (UniProt A4QPH2). The assay can be described thus: Inhibition of PI4KAP2 ATP labeling site in human A-375 cells at 0.05 uM by KiNativ Profiling analysis relative to control. The class given is cell-based.
Chain of Putative phosphatidylinositol 4-kinase alpha-like protein P2 (Homo sapiens) (A4QPH2 whole entry): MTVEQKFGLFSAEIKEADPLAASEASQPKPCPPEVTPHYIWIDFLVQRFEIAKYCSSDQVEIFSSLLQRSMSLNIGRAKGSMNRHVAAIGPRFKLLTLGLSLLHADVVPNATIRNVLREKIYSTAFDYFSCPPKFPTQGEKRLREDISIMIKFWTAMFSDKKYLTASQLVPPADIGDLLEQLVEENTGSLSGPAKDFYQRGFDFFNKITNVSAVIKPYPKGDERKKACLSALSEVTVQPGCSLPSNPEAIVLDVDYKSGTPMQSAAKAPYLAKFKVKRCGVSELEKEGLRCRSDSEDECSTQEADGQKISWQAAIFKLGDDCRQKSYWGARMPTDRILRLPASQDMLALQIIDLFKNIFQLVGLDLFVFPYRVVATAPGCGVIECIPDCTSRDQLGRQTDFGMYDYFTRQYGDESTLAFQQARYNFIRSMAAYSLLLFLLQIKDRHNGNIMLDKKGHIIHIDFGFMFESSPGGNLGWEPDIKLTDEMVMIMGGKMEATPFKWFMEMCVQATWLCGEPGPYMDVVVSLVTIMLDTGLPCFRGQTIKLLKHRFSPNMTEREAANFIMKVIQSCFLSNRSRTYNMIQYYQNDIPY
For assay [3], the target named is Cyclin-dependent kinase 11B (Homo sapiens) (UniProt P21127). The assay can be described thus: Inhibition of CDK11 Lys2 labeling site in human A-375 cells at 0.5 uM by KiNativ Profiling analysis relative to control. The class given is cell-based.
Chain of Cyclin-dependent kinase 11B (Homo sapiens) (P21127 whole entry): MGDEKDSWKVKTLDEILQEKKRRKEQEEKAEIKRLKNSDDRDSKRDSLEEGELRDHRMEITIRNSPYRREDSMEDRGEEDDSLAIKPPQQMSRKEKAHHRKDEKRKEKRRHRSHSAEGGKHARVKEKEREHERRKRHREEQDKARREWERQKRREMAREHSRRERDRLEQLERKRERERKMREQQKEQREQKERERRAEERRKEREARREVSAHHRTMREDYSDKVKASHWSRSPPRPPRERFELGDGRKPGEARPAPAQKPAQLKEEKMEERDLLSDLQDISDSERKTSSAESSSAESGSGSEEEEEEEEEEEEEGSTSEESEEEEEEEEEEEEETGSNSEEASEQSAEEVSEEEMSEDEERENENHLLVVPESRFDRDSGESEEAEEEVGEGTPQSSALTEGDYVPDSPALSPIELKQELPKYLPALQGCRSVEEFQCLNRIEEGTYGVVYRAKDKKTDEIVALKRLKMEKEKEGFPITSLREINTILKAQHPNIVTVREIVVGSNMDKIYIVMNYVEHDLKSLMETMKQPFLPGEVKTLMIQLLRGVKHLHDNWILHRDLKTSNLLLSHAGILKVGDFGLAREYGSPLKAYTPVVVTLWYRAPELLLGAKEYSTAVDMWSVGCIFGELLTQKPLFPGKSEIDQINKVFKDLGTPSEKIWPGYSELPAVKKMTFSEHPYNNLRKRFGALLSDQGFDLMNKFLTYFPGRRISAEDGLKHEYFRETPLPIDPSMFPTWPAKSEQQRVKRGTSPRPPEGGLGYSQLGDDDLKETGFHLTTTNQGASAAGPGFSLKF
Assay [4] has as its target T1, Eukaryotic elongation factor 2 kinase (Homo sapiens) (UniProt O00418).
T1 sequence (whole entry): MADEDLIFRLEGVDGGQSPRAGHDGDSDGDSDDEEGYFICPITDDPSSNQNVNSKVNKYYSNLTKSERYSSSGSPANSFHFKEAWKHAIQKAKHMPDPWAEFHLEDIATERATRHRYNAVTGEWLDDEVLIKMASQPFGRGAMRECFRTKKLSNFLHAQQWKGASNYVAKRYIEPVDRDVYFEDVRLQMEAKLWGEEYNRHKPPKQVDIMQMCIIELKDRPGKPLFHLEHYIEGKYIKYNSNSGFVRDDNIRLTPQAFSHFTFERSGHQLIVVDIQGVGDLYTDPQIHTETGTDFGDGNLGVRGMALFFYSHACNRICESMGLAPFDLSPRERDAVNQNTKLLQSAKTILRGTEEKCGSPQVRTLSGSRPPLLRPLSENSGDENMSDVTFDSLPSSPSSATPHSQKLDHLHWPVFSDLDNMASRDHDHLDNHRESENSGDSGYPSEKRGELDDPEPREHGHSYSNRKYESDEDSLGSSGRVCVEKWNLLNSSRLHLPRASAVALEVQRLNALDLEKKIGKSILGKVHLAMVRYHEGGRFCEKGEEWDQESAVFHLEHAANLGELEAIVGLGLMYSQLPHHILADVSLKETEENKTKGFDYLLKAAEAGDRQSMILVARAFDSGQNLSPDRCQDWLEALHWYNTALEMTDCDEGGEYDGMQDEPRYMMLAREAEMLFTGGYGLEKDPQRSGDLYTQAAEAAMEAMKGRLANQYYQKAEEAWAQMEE
The assay can be described thus: Inhibition of eEF2K ATP labeling site harbouring YIKYNSNSGFVRDDNIR in human A-375 cells at 0.5 uM by KiNativ Profiling analysis relative to control. The class given is cell-based.

The target of assay [5] is Bone morphogenetic protein receptor type-2 (Homo sapiens) (UniProt Q13873). Description: Inhibition of BMPR2 (unknown origin) at 10 uM by Ambit Kinomescan binding assay.
Assay [6] addresses Mitogen-activated protein kinase 8 (Homo sapiens, UniProt P45983). Description: Inhibition of JNK1 (unknown origin) at 10 uM by Ambit Kinomescan binding assay relative to control.
Assay [7] has as its target T2, Serine/threonine-protein kinase Nek9 (Homo sapiens) (UniProt Q8TD19).
T2 sequence (whole entry): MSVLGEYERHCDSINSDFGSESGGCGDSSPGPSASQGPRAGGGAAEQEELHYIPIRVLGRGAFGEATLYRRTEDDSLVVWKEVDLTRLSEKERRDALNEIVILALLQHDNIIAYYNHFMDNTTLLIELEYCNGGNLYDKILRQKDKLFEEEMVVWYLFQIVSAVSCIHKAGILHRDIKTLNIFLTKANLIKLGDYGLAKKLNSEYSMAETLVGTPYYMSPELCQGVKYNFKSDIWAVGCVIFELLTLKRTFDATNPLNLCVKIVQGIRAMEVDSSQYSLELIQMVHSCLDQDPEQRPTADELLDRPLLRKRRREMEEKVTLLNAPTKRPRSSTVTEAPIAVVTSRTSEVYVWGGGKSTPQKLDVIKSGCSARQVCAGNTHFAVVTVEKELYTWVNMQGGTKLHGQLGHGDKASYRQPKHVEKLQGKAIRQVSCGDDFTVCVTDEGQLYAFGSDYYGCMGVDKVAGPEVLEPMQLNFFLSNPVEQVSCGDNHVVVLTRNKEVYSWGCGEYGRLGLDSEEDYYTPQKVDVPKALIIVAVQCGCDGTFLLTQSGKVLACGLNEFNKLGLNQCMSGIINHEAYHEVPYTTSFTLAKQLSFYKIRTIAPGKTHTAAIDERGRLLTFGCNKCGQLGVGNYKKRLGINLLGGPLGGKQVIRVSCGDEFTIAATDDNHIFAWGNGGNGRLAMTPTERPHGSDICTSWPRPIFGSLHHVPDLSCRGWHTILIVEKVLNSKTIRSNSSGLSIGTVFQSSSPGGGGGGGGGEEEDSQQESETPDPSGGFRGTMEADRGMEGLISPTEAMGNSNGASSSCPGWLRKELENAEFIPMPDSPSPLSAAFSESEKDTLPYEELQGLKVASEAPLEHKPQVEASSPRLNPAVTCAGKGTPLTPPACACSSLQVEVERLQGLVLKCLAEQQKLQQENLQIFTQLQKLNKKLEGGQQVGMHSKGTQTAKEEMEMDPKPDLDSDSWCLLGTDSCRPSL
Description: Inhibition of NEK9 Lys2 labeling site in human Huh-7 cells at 1 uM by KiNativ Profiling analysis relative to control. The class given is cell-based.

For another assay, the target named is Ephrin type-A receptor 2 (Homo sapiens, UniProt P29317). Description: Inhibition of EphA2 ACT labeling site in human Huh-7 cell lysate at 1 uM by KiNativ Profiling analysis relative to control. The class given is subcellular.
Chain of Ephrin type-A receptor 2 (P29317 whole entry): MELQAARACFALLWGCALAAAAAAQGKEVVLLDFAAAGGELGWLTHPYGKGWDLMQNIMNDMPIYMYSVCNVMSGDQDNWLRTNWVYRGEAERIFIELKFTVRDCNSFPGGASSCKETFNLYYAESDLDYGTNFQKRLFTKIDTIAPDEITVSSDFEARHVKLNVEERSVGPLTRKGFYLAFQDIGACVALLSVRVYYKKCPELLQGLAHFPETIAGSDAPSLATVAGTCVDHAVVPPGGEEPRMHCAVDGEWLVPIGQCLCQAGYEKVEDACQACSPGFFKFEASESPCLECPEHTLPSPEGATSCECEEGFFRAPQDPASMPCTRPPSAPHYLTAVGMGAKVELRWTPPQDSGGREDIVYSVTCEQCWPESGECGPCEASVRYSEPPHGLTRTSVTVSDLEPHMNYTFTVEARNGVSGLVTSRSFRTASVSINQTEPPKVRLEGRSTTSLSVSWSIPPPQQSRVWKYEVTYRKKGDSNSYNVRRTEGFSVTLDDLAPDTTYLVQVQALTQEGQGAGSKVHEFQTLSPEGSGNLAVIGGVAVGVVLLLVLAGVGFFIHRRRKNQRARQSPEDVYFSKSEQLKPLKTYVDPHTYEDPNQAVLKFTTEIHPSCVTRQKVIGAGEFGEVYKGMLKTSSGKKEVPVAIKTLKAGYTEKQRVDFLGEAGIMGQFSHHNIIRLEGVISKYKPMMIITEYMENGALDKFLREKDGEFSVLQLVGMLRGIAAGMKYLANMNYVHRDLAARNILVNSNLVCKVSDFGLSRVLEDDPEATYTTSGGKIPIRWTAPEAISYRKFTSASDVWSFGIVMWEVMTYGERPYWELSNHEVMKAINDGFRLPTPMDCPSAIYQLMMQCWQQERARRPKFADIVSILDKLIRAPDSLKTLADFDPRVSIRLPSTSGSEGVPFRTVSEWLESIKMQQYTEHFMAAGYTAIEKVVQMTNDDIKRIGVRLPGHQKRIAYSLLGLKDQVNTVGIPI
The target of assay [8] is Serine/threonine-protein kinase VRK2 (Homo sapiens) (UniProt Q86Y07). Description: Inhibition of VRK2 Lys2 labeling site in human Huh-7 cell lysate at 1 uM by KiNativ Profiling analysis relative to control. Format: subcellular.
Chain of Serine/threonine-protein kinase VRK2 (Homo sapiens) (Q86Y07 whole entry): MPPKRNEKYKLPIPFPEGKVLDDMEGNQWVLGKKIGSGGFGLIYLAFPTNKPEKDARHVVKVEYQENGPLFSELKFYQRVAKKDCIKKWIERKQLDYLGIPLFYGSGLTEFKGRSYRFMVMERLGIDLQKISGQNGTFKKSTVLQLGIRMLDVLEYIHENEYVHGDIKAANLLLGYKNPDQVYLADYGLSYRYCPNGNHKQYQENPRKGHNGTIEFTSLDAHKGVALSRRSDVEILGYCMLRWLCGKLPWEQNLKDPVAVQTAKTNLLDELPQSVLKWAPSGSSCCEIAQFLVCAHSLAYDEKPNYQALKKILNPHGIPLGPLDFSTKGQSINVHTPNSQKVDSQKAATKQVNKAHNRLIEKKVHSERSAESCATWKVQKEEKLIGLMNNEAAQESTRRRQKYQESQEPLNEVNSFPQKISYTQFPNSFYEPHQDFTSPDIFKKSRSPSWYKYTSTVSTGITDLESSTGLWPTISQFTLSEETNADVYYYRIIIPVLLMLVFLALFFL
Assay [9] concerns the target Protein kinase C beta type (Homo sapiens) (UniProt P05771). Description: Inhibition of PKCb Lys2 labeling site in human Huh-7 cell lysate at 1 uM by KiNativ Profiling analysis relative to control. Format: subcellular.
The target of assay [10] is Serine/threonine-protein kinase Nek7 (Homo sapiens) (UniProt Q8TDX7). The assay can be described thus: Inhibition of NEK7 Lys2 labeling site harbouring DIKPANVFITATGVVK in human Huh-7 cell lysate at 1 uM by KiNativ Profiling analysis relative to control. Format: subcellular.
Chain of Serine/threonine-protein kinase Nek7 (Homo sapiens) (Q8TDX7 whole entry, looked up): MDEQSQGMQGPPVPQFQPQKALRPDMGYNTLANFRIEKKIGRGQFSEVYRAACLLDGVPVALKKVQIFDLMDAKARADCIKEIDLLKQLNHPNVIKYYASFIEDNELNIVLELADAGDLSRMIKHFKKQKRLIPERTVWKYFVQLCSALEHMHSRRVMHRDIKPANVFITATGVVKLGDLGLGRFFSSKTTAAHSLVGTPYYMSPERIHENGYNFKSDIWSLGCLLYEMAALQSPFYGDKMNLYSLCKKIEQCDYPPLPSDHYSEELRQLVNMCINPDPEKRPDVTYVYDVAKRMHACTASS
The target of assay [11] is Serine-protein kinase ATM (Homo sapiens) (UniProt Q13315). The assay can be described thus: Inhibition of ATM ATP labeling site in human Huh-7 cell lysate at 1 uM by KiNativ Profiling analysis relative to control. Format: subcellular.
Assay [12] has as its target Calcium/calmodulin-dependent protein kinase type II subunit delta (Homo sapiens) (UniProt Q13557). The assay can be described thus: Inhibition of CaMK2d Lys1 labeling site harbouring IPTGQEYAAKIINTK in human Huh-7 cell lysate at 1 uM by KiNativ Profiling analysis relative to control. Format: subcellular.

Molecules are shown by their SMILES. The source made the active and inactive calls. The rule behind the calls is not given here.

Chain of Protein kinase C beta type (Homo sapiens) (P05771 2-671 limits assumed): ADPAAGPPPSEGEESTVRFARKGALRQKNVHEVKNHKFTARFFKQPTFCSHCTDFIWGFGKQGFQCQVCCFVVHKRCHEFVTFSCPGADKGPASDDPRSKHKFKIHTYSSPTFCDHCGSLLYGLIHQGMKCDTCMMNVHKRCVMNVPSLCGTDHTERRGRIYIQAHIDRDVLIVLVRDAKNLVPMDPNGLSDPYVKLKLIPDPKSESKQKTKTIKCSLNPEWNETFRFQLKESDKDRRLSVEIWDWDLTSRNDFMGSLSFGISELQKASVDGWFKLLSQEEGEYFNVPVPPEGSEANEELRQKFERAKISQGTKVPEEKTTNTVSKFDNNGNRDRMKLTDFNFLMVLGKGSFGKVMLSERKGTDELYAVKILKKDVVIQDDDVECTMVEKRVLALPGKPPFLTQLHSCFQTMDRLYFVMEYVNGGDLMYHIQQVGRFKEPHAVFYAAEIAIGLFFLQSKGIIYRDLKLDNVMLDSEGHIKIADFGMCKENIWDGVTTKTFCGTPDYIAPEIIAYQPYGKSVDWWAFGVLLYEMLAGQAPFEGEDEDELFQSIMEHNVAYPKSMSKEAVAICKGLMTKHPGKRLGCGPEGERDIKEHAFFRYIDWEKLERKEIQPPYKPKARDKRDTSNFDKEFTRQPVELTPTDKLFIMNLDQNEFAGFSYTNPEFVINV
Chain of Mitogen-activated protein kinase 8 (P45983 whole entry): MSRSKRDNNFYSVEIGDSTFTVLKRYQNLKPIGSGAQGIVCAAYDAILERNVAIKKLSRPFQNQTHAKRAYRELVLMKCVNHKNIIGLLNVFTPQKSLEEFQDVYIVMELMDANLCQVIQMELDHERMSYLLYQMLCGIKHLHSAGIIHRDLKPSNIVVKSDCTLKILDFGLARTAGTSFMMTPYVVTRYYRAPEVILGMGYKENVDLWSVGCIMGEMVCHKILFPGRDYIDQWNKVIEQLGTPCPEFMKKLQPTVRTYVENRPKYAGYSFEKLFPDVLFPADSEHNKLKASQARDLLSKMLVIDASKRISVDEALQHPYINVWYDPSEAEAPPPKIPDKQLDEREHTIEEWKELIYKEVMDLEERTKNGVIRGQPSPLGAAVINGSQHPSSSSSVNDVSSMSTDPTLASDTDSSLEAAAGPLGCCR
Chain of Protein kinase C epsilon type (Homo sapiens) (Q02156 whole entry): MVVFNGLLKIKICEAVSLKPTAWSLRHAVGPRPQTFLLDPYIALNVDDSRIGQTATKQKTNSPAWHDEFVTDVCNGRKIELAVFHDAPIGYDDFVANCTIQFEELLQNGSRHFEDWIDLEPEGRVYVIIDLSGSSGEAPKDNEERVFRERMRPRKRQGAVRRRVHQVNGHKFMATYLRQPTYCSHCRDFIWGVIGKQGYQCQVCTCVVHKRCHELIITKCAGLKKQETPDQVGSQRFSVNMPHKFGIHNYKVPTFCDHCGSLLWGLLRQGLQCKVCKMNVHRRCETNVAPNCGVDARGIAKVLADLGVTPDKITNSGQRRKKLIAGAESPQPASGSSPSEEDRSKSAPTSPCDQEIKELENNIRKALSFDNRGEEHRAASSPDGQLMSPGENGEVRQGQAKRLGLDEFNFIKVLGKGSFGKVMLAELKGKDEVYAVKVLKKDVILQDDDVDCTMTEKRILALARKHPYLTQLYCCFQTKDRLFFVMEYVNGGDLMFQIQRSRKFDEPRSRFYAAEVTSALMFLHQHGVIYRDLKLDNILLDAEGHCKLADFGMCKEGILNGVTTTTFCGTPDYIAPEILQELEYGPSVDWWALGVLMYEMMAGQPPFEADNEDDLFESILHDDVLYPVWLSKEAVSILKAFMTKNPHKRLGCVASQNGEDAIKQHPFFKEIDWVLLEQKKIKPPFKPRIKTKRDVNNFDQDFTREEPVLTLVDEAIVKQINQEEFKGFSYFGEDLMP

As a reminder, the residual activity is the activity still measured, relative to the control. A higher residual activity goes with much activity left. The inhibition is the change of the read-out against control, counted positive when it falls. Consider `CCN1CCN(Cc2ccc(NC(=O)c3ccc(C)c(/C=C/c4cnc5[nH]ccc5c4OC)c3)cc2C(F)(F)F)CC1`, for which, in assay [1], the residual activity came to 62%. For the same compound, the inhibition in assay [2] is 0.8%.

Take `CCN1CCN(Cc2ccc(NC(=O)c3ccc(C)c(Oc4ccnc5[nH]ccc45)c3)cc2C(F)(F)F)CC1`: the inhibition amounted to 51.2% in [3], 0.1% in assay [4] and 0% in assay [6]. Further, the inhibition entry in assay [5] was “inactive”.

In the case of `CNc1cc(Oc2cc(C(=O)Nc3cc(N4CCN(C)CC4)cc(C(F)(F)F)c3)ccc2C)ncn1`, the inhibition is -4.9% in assay [7]; 25.1% on Ephrin type-A receptor 2; -0.9% in assay [8]; -1.2% in [9]; -5% in assay [10]; 4.8% in assay [11]. Further, the inhibition in [12] stood at 1.4%.
